Laboratory results published in PMC6072251 (ACS Omega, 2018).
Values after ≈ are worked out from the molar mass of the structure shown. Read-outs that look alike come from different tables or passages of the source.

How the values were obtained:
S. mutans biofilm = S. mutans biofilm formation and inhibition assay; assay type: cell-based, Streptococcus mutans UA159; details: for IC50: Streptococcus mutans
S. mutans growth = S. mutans growth inhibition assay; assay type: cell-based, Streptococcus mutans UA159; details: Streptococcus mutans, read-out: Growth MIC50
Gtfs = assay: Zymogram assay of Gtf enzymatic activity; assay type: biochemical, S. mutans UA159; details: compared to DMSO control
[1] = tested on: S. mutans UA159-induced dental caries; assay: Rat model of dental caries; assay type: in vivo, Fischer 344 rats; details: for bacterial colonization (cfu/mandible) / body weight over the course of the study: 100 μM twice daily for 4 weeks; for bacterial colonization (cfu/mandible): compared with control group treated with water; for body weight over the course of the study: in comparison with the control group; for oral tissue (mucosal and gingival tissues) at sacrifice: treated vs nontreated rats
S. mutans = assay: Cell viability / growth of S. mutans; assay type: cell-based
S. sanguinis = assay: Growth of commensal S. sanguinis; assay type: cell-based, Streptococcus sanguinis SK36
S. gordonii = assay: Growth of commensal S. gordonii; assay type: cell-based, Streptococcus gordonii DL1
S. mutans colonization = assay: Sucrose-dependent drosophila colonization model; assay type: in vivo; details: 50 μM, feeding assay, after 7 days of infection

SMILES	IC50 (S. mutans biofilm; read-out: Biofilm IC50) [µM]	Selectivity (S. mutans biofilm; biofilm inhibition over growth inhibition of S. mutans)	MIC50 (S. mutans growth) [µM]	glucan production / Gtf inhibition in zymogram assay (in words) (Gtfs)	bacterial colonization (cfu/mandible) [1]	body weight over the course of the study [1]	oral tissue (mucosal and gingival tissues) at sacrifice [1]	IC50 (S. mutans biofilm; read-out: Biofilm IC50, S. mutans biofilm, NI: no inhibition) [µM]	viability of the biofilms and the planktonic cells (S. mutans; S. mutans)	inhibition of cell viability (S. mutans; S. mutans, at 400 μM) [%]	inhibition at 52 µM (S. mutans; Streptococcus mutans, read-out: growth inhibited) [%]	decrease of cell density (S. sanguinis; S. sanguinis, at 400 μM)	inhibition at 52 µM (S. sanguinis; Streptococcus sanguinis, read-out: growth inhibited) [%]	decrease of cell density (S. gordonii; S. gordonii, at 400 μM)	inhibition at 52 µM (S. gordonii; Streptococcus gordonii, read-out: growth inhibited) [%]	fluorescence in the guts of flies fed Gfp-tagged S. mutans (S. mutans colonization)
O=C(/C=C/c1ccc(O)c(O)c1)O[C@@H]1C[C@](O)(C(=O)O)C[C@@H](O)[C@H]1O [Compound 10]	518 ± 85	3.3	1720 ± 53 (≈ 611 µg/mL)	–	–	–	–	–	–	–	–	–	–	–	–	–
Oc1ccc(/C=C/c2cc(O)cc(O)c2)cc1 [Compound 7, resveratrol]	–	–	546 ± 15.9 (≈ 125 µg/mL)	marginal inhibition	not statistically significant	did not lose weight	no obvious differences	–	–	–	–	–	–	–	–	–
Oc1cc(O)cc(/C=C/c2ccc(O)c(O)c2)c1 [Compound 8, piceatannol]	–	–	564 ± 37.8 (≈ 138 µg/mL)	greatly reduced glucan production	not statistically significant	did not lose weight	no obvious differences	52 ± 6	not significantly impacted	37	< 10	15–18%	< 10	15–18%	< 10	significant decrease in fluorescence
